Measured values as given in article PMC4508061, “Selectivity Profiling and Biological Activity of Novel β-Carbolines as Potent and Selective DYRK1 Kinase Inhibitors” (PLoS ONE, 2015).
pIC50: −log10 of the molar value. Read-outs that look alike come from different tables or passages of the source.

What was measured:
DYRK1A [1] = biological target: T1, DYRK1A (Homo sapiens, UniProt Q13627); assay: SF3B1 Thr434 phosphorylation in HeLa cells (immunoblot); format: cell-based; settings: HeLa cells expressing GFP-SF3B1-NT, 18 h
T1 construct: purchased ProQinase (Freiburg, Germany)
Protocol: Fig 4 Inhibition of SF3B1 phosphorylation by DYRK1A in HeLa cells. HeLa cells expressing GFP-SF3B1-NT were treated with the indicated compounds for 18 h. The phosphorylation state of SF3B1 was determined by immunoblotting with pT434 antibody, and the results were normalized to the total amount of SF3B1 immunoreactivity. A, Representative western blots. […] The vertical line indicates where irrelevant lanes were deleted from the final image. B, The column diagram summarizes the quantitative evaluation of 3–6 experiments for each compound (means + SD).
(500 ng/well) using FuGENE HD (Promega, Mannheim, Germany).

HIPK4 = biological target: T2, HIPK4 (Homo sapiens, UniProt Q8NE63); design: purchased ProQinase (Freiburg, Germany); settings: 10 μM; cited from earlier work
T2 sequence (Q8NE63 1-616): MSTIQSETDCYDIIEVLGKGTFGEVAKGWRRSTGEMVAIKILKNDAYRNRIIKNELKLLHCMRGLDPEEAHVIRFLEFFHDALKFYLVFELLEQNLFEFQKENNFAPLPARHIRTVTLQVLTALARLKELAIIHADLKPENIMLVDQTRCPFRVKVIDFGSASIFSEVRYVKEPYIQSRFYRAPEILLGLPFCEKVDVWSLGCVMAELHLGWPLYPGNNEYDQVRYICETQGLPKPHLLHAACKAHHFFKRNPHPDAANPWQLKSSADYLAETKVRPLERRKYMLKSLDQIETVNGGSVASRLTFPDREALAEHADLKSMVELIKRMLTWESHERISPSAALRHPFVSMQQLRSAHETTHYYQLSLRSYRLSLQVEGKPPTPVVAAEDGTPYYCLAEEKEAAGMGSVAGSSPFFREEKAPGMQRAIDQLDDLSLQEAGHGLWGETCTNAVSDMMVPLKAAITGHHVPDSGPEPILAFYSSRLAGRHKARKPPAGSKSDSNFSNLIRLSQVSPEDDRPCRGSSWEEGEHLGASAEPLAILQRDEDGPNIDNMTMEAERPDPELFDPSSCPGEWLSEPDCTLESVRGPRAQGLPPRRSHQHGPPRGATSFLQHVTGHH

PIM3 = PIM3 (Homo sapiens, UniProt Q86V86); design: purchased ProQinase (Freiburg, Germany); settings: cited from earlier work
HIPK1 = HIPK1 (Homo sapiens, UniProt Q86Z02); design: purchased ProQinase (Freiburg, Germany); settings: cited from earlier work
DYRK1A [2] = biological target: T1, DYRK1A; assay: Kinase-GLO luminescent kinase assay; format: biochemical; settings: 1 μM compound; means of at least 3 measurements
Protocol: (§1) Bacterial expression plasmids for GST-DYRK1A-ΔC and GST-DYRK2 have been described earlier. […] Expression in logarithmically growing E. coli culture was performed for 3 h at 37°C (GST-DYRK1A-ΔC and GST-DYRK2), 3 h at 26°C (GST-HIPK2cat), over night at 28°C (GST-CLK1cat) or over night at room temperature (GST-DYRK1Bcat).
(§2) Compounds were screened for inhibitory effects against GST-DYRK1A-ΔC, GST-DYRK1Bcat, GST-DYRK2, GST-CLK1cat or GST-HIPK2cat using the Kinase-GLO Luminescent Kinase Assay from Promega. Assays were performed in a total volume of 10 μL in kinase-buffer (25 mM Hepes pH 7.4, 0.5 mM DTT, 5 mM MgCl2, 5 μM ATP) with appropriate peptide substrates (20 μM DYRKtide for the DYRKs and 100 μM DYRKtide for HIPK2, […]; or 100 μM RS domain-derived peptide for CLK1, […]). Assays were started with this amount of a kinase preparation that consumed approximately 90% of the ATP in the assay (linear range of the kinase titration curve). The reactions were run at room temperature for 30 min before 10 μL Kinase-GLO reagent was added. After incubation at room temperature for additional 10 min, luminescence was recorded for 1 s.

DYRK2 [3] = biological target: T3, DYRK2 (Homo sapiens, UniProt Q92630); assay: Kinase-GLO luminescent kinase assay; format: biochemical; settings: 1 μM compound; means of at least 3 measurements
T3 construct: purchased ProQinase (Freiburg, Germany)
T3 sequence (Q92630 1-601): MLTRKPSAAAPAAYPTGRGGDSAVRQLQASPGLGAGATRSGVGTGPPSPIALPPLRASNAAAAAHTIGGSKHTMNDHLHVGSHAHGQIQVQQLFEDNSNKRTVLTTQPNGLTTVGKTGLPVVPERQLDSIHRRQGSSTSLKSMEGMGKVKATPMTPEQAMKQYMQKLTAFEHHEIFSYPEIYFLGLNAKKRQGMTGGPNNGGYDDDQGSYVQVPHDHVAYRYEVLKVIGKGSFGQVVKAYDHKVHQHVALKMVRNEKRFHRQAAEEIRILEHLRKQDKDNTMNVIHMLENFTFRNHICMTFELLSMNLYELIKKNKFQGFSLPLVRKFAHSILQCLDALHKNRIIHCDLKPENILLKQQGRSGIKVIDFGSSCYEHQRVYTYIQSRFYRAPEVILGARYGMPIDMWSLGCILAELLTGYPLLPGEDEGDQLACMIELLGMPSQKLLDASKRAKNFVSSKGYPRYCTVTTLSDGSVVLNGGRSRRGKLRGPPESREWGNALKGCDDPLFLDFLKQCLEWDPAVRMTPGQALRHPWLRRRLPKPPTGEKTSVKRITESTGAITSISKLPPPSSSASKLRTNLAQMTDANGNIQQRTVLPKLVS
Protocol: as §1, §2

PIM1 = PIM1 (Homo sapiens, UniProt P11309); design: purchased ProQinase (Freiburg, Germany); settings: cited from earlier work
Haspin = settings: ref Cuny et al. 38; cited from earlier work
PIM2 = PIM2 (Homo sapiens, UniProt Q9P1W9); design: purchased ProQinase (Freiburg, Germany); settings: cited from earlier work
HIPK2 [4] = biological target: T4, HIPK2 (Homo sapiens, UniProt Q9H2X6); design: purchased ProQinase (Freiburg, Germany); settings: cited from earlier work
DYRK2 [5] = biological target: T3, DYRK2; settings: cited from earlier work
CLK1 [6] = biological target: T5, CLK1 (Homo sapiens, UniProt P49759); design: purchased ProQinase (Freiburg, Germany); settings: 10 μM; cited from earlier work
CLK1 [7] = biological target: T5, CLK1; assay: Kinase-GLO luminescent kinase assay; format: biochemical; design: made in house; host or cells: E. coli; settings: 1 μM compound; means of at least 3 measurements
Protocol: as §1, §2

HIPK2 [8] = biological target: T4, HIPK2; assay: Kinase-GLO luminescent kinase assay; format: biochemical; design: made in house; host or cells: E. coli; settings: 10 μM compound; means of at least 3 measurements
Protocol: as §1, §2

DYRK1B [9] = biological target: T6, DYRK1B (Homo sapiens, UniProt Q9Y463); assay: Kinase-GLO luminescent kinase assay; format: biochemical; design: made in house; host or cells: E. coli; settings: 1 μM compound; means of at least 3 measurements
Protocol: as §1, §2

IRAK1 = IRAK1 (Homo sapiens, UniProt P51617); design: purchased ProQinase (Freiburg, Germany); settings: 10 μM; cited from earlier work
DYRK1A [10] = settings: cited from earlier work
HIPK3 = HIPK3 (Homo sapiens, UniProt Q9H422); design: purchased ProQinase (Freiburg, Germany); settings: cited from earlier work
DYRK1B [11] = biological target: T6, DYRK1B; design: purchased ProQinase (Freiburg, Germany); settings: 10 μM; cited from earlier work

Sequence of HIPK3 (Q9H422 whole entry): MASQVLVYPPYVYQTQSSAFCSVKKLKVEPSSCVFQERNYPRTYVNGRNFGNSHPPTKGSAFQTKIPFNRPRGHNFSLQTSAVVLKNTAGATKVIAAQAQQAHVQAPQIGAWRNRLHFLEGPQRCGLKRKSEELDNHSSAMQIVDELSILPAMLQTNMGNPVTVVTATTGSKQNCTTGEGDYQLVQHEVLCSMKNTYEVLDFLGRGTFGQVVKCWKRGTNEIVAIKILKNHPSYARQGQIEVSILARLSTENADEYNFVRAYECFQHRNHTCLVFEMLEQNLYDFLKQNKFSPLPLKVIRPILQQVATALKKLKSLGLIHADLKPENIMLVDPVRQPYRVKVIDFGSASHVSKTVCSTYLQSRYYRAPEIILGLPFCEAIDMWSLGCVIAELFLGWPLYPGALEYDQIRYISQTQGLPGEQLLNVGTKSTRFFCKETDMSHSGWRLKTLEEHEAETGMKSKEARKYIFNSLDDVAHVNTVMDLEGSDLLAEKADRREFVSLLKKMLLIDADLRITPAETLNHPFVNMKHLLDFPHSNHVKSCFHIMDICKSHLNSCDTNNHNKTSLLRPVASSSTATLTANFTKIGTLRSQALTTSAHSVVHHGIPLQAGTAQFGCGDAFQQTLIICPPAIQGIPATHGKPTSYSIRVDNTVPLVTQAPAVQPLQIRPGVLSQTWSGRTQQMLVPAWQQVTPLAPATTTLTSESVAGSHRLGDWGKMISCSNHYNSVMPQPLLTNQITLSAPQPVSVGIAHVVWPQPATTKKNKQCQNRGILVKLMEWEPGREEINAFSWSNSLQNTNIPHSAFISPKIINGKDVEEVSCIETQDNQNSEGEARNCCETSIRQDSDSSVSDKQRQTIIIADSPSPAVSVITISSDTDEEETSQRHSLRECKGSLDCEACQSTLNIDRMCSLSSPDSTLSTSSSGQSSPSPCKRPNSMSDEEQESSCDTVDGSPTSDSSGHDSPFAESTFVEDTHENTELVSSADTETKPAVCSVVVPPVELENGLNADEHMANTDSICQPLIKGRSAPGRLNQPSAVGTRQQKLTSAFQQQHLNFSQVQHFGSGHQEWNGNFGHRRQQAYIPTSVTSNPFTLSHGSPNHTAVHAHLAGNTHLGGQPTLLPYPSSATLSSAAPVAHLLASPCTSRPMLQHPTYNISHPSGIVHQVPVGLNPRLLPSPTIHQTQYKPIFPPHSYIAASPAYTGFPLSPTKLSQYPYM
Sequence of PIM1 (P11309 whole entry): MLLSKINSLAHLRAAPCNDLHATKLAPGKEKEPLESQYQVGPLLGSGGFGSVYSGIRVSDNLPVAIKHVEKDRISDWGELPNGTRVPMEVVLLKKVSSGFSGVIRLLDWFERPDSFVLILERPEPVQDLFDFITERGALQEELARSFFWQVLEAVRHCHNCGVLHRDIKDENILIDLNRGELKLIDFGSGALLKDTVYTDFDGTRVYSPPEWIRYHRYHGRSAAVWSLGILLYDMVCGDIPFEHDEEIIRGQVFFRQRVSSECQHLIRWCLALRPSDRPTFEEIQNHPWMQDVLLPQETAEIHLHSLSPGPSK
Sequence of PIM2 (Q9P1W9 whole entry): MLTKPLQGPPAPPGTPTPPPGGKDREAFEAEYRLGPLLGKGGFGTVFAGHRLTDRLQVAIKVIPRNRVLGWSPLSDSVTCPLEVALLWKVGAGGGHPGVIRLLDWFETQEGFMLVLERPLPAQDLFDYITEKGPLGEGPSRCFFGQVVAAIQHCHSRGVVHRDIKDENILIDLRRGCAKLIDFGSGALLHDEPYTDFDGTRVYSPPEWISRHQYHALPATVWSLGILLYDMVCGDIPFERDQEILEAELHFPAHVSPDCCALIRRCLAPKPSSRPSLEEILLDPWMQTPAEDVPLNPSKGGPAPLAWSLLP
Sequence of HIPK1 (Q86Z02 whole entry): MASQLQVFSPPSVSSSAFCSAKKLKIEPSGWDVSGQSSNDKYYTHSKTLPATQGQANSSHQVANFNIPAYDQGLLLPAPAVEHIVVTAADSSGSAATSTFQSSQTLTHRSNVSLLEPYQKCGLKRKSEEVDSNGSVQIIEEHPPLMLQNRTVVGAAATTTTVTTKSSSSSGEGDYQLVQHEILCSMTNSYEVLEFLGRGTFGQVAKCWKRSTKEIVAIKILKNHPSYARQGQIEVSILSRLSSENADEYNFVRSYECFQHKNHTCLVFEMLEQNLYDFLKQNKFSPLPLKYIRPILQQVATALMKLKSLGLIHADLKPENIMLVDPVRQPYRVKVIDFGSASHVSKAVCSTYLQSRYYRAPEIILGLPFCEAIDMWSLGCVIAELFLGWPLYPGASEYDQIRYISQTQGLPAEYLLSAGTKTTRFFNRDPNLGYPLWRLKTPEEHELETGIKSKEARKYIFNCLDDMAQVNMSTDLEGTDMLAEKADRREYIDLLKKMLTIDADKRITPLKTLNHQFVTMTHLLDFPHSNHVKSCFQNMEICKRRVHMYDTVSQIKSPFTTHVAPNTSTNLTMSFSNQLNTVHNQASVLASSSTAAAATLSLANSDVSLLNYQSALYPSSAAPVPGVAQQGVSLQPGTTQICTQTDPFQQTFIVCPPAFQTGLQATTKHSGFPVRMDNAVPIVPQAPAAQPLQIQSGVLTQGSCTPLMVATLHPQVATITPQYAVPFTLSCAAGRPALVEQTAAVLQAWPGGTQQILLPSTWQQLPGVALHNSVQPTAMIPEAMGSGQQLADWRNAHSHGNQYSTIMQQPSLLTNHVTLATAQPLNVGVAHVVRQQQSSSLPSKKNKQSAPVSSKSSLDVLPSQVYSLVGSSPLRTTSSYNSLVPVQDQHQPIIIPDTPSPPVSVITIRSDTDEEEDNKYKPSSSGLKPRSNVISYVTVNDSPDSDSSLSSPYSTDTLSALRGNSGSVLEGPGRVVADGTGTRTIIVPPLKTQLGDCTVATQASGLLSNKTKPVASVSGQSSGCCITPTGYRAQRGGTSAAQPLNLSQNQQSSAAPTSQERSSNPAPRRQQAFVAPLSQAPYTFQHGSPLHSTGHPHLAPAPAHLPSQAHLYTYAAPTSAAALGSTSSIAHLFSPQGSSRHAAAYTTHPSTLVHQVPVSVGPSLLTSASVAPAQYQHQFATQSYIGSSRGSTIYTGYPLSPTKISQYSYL
Sequence of IRAK1 (P51617 whole entry): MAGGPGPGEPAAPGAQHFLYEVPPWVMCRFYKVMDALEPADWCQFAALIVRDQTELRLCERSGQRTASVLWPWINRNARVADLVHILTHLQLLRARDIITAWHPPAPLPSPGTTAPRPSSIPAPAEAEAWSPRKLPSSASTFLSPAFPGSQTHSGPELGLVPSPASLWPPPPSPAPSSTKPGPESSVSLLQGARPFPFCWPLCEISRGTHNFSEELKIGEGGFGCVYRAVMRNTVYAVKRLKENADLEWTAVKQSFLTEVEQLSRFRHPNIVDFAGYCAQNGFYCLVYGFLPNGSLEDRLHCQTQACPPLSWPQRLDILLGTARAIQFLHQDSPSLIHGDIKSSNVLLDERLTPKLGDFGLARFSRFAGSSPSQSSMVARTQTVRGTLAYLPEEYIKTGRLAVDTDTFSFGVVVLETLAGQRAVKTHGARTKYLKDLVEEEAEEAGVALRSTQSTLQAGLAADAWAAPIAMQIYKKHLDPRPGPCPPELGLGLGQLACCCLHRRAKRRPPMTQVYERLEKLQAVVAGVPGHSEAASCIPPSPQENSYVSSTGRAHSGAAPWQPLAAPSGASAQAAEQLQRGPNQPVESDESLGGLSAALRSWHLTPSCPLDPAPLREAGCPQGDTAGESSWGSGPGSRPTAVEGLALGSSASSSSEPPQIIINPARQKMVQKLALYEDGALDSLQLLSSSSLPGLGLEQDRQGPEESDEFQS

In the case of `N#CCn1c2c(Br)nccc2c2ccc(Cl)c(Cl)c21` [AnnH79], the “inhibition of DYRK1A-catalysed SF3B1 Thr434 phosphorylation” value (DYRK1A [1]) was “does not inhibit DYRK1A”.

For `COc1ccc2c(c1)[nH]c1c(C)nccc12` [Harmine, harmine], the “Residual activity (% of control)” value (HIPK4) is given as 90 % of control, the “Residual activity (% of control)” value (PIM3; 1 μM) is given as 74 % of control and the “Residual activity (% of control)” value (PIM3; 10 μM) is given as 78 % of control. For the same molecule, the “Residual activity (% of control)” value (HIPK1; 1 μM) was 119 % of control, the “Residual activity (% of control)” value (HIPK1; 10 μM) was 14 % of control and the “Residual activity (% of control) DYRK1A” value (DYRK1A [2]) was 27 % of control. For the same molecule, the “Residual activity (% of control) DYRK2” value (DYRK2 [3]) was 92 % of control, the “Residual activity (% of control)” value (PIM1; 1 μM) was 74 % of control and the “Residual activity (% of control)” value (PIM1; 10 μM) was 85 % of control. The pIC50 (Haspin) was 6.23, the “Residual activity (% of control)” value (PIM2; 1 μM) was 101 % of control and the “Residual activity (% of control)” value (PIM2; 10 μM) was 43 % of control. For the same molecule, the “Residual activity (% of control)” value (HIPK2 [4]; 1 μM) was 68 % of control, the “Residual activity (% of control)” value (HIPK2 [4]; 10 μM) was 34 % of control and the “Residual activity (% of control)” value (DYRK2 [5]; 1 μM) was 35 % of control. The “Residual activity (% of control)” value (DYRK2 [5]; 10 μM) was 61 % of control, the “Residual activity (% of control)” value (CLK1 [6]) was 0 % of control and the “Residual activity (% of control) CLK1” value (CLK1 [7]) was 23 % of control. The “Residual activity (% of control) HIPK2” value (HIPK2 [8]) was 79 % of control, the “Residual activity (% of control) DYRK1B” value (DYRK1B [9]) was 11 % of control and the “Residual activity (% of control)” value (IRAK1) was 66 % of control. The “Residual activity (% of control)” value (DYRK1A [10]; 1 μM) was […], the “Residual activity (% of control)” value (DYRK1A [10]; 10 μM) was […] and the pIC50 (DYRK1A [10]; range of published values, read-out: Inhibition of DYRK1A IC50) was […]. The “Residual activity (% of control)” value (HIPK3; 1 μM) was 118 % of control, the “Residual activity (% of control)” value (HIPK3; 10 μM) was 44 % of control and the “Residual activity (% of control)” value (DYRK1B [11]) was 2 % of control.
